Experimental findings from patent US20150038438A1, “ANTIBACTERIAL COMPOUNDS AND METHODS FOR USE” (PTC THERAPEUTICS, INC., priority 2011, published 2015) are described below.

Holding throughout (test): Antibacterial activity, microbroth dilution method (MIC)
Background: In broth dilution the organism is exposed to a series of concentrations in liquid medium.

Assay [1] concerns control Gram-negative E. coli 25922 strain. It is filed as cell-based, Escherichia coli. The note with it: Escherichia coli. In short, it runs like this:
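Broth microdilution; endpoint = no macroscopic growth; value = lowest inhibiting concn, μg/mL.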

Assay [2] concerns Gram-positive Staphylococcus aureus (S. aureus) 29213. Type of assay: cell-based. As to conditions: Staphylococcus aureus, Gram-positive S. aureus 29213. In short, it runs like this:
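Broth microdilution against S. aureus 29213, E. coli 25922 and hypersensitive E. coli BAS849. MIC in μg/mL is the lowest drug concentration preventing macroscopically visible growth under test conditions.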

Assay [3] deals with super sensitive Gram-negative Escherichia coli (E. coli) BAS849. It is filed as cell-based. The note with it: Escherichia coli, read-out: MIC, E. coli BAS849. In short, it runs like this:
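In a microbroth dilution test, the minimum inhibitory concentration was defined as the lowest compound level preventing growth seen by eye, and was given in μg/mL.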

Setting [4] is: super sensitive Gram-negative E. coli BAS849, microbroth dilution.

Values after ≈ are worked out from the molar mass of the structure shown. Counter-ions that a name gives are not always drawn. Like-named read-outs stand apart in the source and are kept apart here.

Turning to `Cl.Cn1c(CN2CCC2)cc2cc3c(cc21)CCCc1cc(C(=O)O)c(=O)[nH]c1-3` [Cpd 57, 10-(azetidin-1-ylmethyl)-9-methyl-2-oxo-1,2,5,6,7,9-hexahydropyrido[3′,2′:6,7]cyclohepta[1,2-f]indole-3-carboxylic acid hydrochloride], the minimal inhibitory concentration (MIC) (commonly the lowest concentration found to suppress growth) in assay [1] was below 1 mg/L; in assay [2], 12.5 to 150 mg/L; in assay [3] (setting [4]) it was below 1 mg/L.
In the case of `C=CCNCc1cc2cc3c(cc2n1C)CCCc1c-3[nH]c(=O)c(C(=O)O)c1O.Cl` [Cpd 153, 10-((allylamino)methyl)-4-hydroxy-9-methyl-2-oxo-1,2,5,6,7,9-hexahydropyrido[3′,2′:6,7]cyclohepta[1,2-f]indole-3-carboxylic acid hydrochloride], the MIC in assay [1] is below 1 mg/L; in assay [2], 3.5 to 12.5 mg/L; in assay [3] (setting [4]), below 1 mg/L.
For `Cn1ccc2cc3c(cc21)C=CCc1c-3[nH]c(=O)c(C(=O)O)c1O` [Cpd 16, 4-hydroxy-9-methyl-2-oxo-1,2,5,9-tetrahydropyrido[3′,2′:6,7]cyclohepta[1,2-f]indole-3-carboxylic acid], the minimal inhibitory concentration (MIC) was 1 to 3.5 mg/L (≈ 3.1 to 10.9 µM) in assay [1], 1 to 3.5 mg/L (≈ 3.1 to 10.9 µM) in assay [2] and below 1 mg/L in assay [3] (setting [4]).
For the compound `CN(C)c1ccc2c(c1)SCCc1c-2[nH]c(=O)c(C(=O)O)c1O` [Cpd 185, 9-(dimethylamino)-4-hydroxy-2-oxo-1,2,5,6-tetrahydrobenzo[2,3]thiepino[4,5-b]pyridine-3-carboxylic acid], the MIC in assay [1] was 12.5 to 150 mg/L (≈ 37.6 to 451 µM); in assay [2], 12.5 to 150 mg/L (≈ 37.6 to 451 µM); in assay [3] (setting [4]), below 1 mg/L.
As to `CN(C)C1CCN(c2ccc3c(c2)CCCc2c-3[nH]c(=O)c(C(=O)O)c2O)C1.Cl` (stereo not drawn) [Cpd 6, 9-(3-(dimethylamino)pyrrolidin-1-yl)-4-hydroxy-2-oxo-2,5,6,7-tetrahydro-1H-benzo[6,7]cyclohepta[1,2-b]pyridine-3-carboxylic acid hydrochloride], the minimal inhibitory concentration (MIC) in assay [1] was 3.5 to 12.5 mg/L; in assay [2] it was 12.5 to 150 mg/L; in assay [3] (setting [4]), below 1 mg/L.
In the case of `O=C(O)c1c(O)c2c([nH]c1=O)-c1ccc(N3CCCC3)cc1CCC2` [Cpd 7, 4-hydroxy-2-oxo-9-(pyrrolidin-1-yl)-2,5,6,7-tetrahydro-1H-benzo[6,7]cyclohepta[1,2-b]pyridine-3-carboxylic acid], the values for the MIC in assay [1], in assay [2] and in assay [3] (setting [4]) were 12.5 to 150 mg/L (≈ 36.7 to 441 µM), 3.5 to 12.5 mg/L (≈ 10.3 to 36.7 µM) and below 1 mg/L, respectively.
The corresponding values for `CC1Oc2cc(N3CCC(N(C)C)C3)ccc2-c2[nH]c(=O)c(C(=O)O)cc21.Cl` (stereo not drawn) [Cpd 75, 8-(3-(dimethylamino)pyrrolidin-1-yl)-5-methyl-2-oxo-2,5-dihydro-1H-chromeno[4,3-b]pyridine-3-carboxylic acid hydrochloride] are 12.5 to 150 mg/L, 12.5 to 150 mg/L and 12.5 to 150 mg/L.
Regarding `CC1Cc2cc(N3C[C@@H]4[C@@H](N)[C@@H]4C3)ccc2-c2[nH]c(=O)c(C(=O)O)c(O)c21` (stereo partly drawn) [Cpd 110, 8-((cis,cis)-6-amino-3-azabicyclo[3.1.0]hexan-3-yl)-4-hydroxy-5-methyl-2-oxo-1,2,5,6-tetrahydrobenzo[h]quinoline-3-carboxylic acid trifluoroacetate], the minimum inhibitory concentration (MIC) in assay [1] was in the range of 12.5 to 150 mg/L; in assay [2], 12.5 to 150 mg/L; in assay [3], 3.5 to 12.5 mg/L.
On to `Cl.O=C(O)c1c(O)c2c([nH]c1=O)-c1ccc(N3CC4CCCNC4C3)cc1NCC2` (stereo not drawn) [Cpd 98, 9-(hexahydro-1H-pyrrolo[3,4-b]pyridin-6(2H)-yl)-4-hydroxy-2-oxo-2,5,6,7-tetrahydro-1H-benzo[b]pyrido[2,3-d]azepine-3-carboxylic acid hydrochloride], for which the MIC in assay [1], in assay [2] and in assay [3] (setting [4]) was 12.5 to 150 mg/L throughout.
`CN1CCCN(Cc2cc3cc4c(cc3n2C)CCCc2c-4[nH]c(=O)c(C(=O)O)c2O)CC1.Cl.Cl` [Cpd 156, 4-hydroxy-9-methyl-10-((4-methyl-1,4-diazepan-1-yl)methyl)-2-oxo-1,2,5,6,7,9-hexahydropyrido[3′,2′:6,7]cyclohepta[1,2-f]indole-3-carboxylic acid dihydrochloride]: the MIC in assay [1] was 3.5 to 12.5 mg/L; in assay [2], 12.5 to 150 mg/L; in assay [3] (setting [4]), below 1 mg/L.
As to `CN(C)C1CCN(Cc2cc3cc4c(cc3n2C)CCCc2c-4[nH]c(=O)c(C(=O)O)c2O)C1.Cl.Cl` (stereo not drawn) [Cpd 47, 10-((3-(dimethylamino)pyrrolidin-1-yl)methyl)-4-hydroxy-9-methyl-2-oxo-1,2,5,6,7,9-hexahydropyrido[3′,2′:6,7]cyclohepta[1,2-f]indole-3-carboxylic acid dihydrochloride], the MIC in assay [1] was 3.5 to 12.5 mg/L; in assay [2], 3.5 to 12.5 mg/L; in assay [3] (setting [4]), below 1 mg/L.
On to `Cl.Cl.Cn1c(CNCCN2CCCC2)cc2cc3c(cc21)OCCc1c-3[nH]c(=O)c(C(=O)O)c1O` [Cpd 179, 4-hydroxy-9-methyl-2-oxo-10-(((2-(pyrrolidin-1-yl)ethyl)amino)methyl)-2,5,6,9-tetrahydro-1H-pyrido[2′,3′:4,5]oxepino[3,2-f]indole-3-carboxylic acid dihydrochloride], for which the minimal inhibitory concentration (MIC) in assay [1], in assay [2] and in assay [3] (setting [4]) was 12.5 to 150 mg/L in each case.
With `N[C@@H]1[C@H]2CN(c3ccc4c(c3)NCCc3c-4[nH]c(=O)c(C(=O)O)c3O)C[C@@H]12` [Cpd 97, 9-((cis,cis)-6-amino-3-azabicyclo[3.1.0]hexan-3-yl)-4-hydroxy-2-oxo-2,5,6,7-tetrahydro-1H-benzo[b]pyrido[2,3-d]azepine-3-carboxylic acid hydrochloride], the minimal inhibitory concentration (MIC) in assay [1] was in the range of 3.5 to 12.5 mg/L; in assay [2], 12.5 to 150 mg/L; in assay [3] (setting [4]), 1 to 3.5 mg/L.
For `Cn1ccc2cc3c(cc21)CCCc1c-3[nH]c(=O)c(C(=O)O)c1O` [Cpd 17, 4-hydroxy-9-methyl-2-oxo-1,2,5,6,7,9-hexahydropyrido[3′,2′:6,7]cyclohepta[1,2-f]indole-3-carboxylic acid], the results for the minimal inhibitory concentration (MIC) in assay [1], in assay [2] and in assay [3] (setting [4]) were 1 to 3.5 mg/L (≈ 3.08 to 10.8 µM), 1 to 3.5 mg/L (≈ 3.08 to 10.8 µM) and below 1 mg/L, respectively.
For `CN1CCC(NCc2cc3cc4c(cc3n2C)CCCc2c-4[nH]c(=O)c(C(=O)O)c2O)CC1.Cl.Cl` [Cpd 157, 4-hydroxy-9-methyl-10-(((1-methylpiperidin-4-yl)amino)methyl)-2-oxo-1,2,5,6,7,9-hexahydropyrido[3′,2′:6,7]cyclohepta[1,2-f]indole-3-carboxylic acid dihydrochloride], the MIC in assay [1] is 1 to 3.5 mg/L; in assay [2], 12.5 to 150 mg/L; in assay [3] (setting [4]), below 1 mg/L.
As for `CCN(CC)Cc1cc2cc3c(cc2n1C)CCCc1c-3[nH]c(=O)c(C(=O)O)c1O.Cl` [Cpd 43, 10-((diethylamino)methyl)-4-hydroxy-9-methyl-2-oxo-1,2,5,6,7,9-hexahydropyrido[3′,2′:6,7]cyclohepta[1,2-f]indole-3-carboxylic acid hydrochloride], the MIC is 1 to 3.5 mg/L in assay [1], 3.5 to 12.5 mg/L in assay [2] and below 1 mg/L in assay [3] (setting [4]).
The corresponding values for `CC1Oc2cc(N3CCCC3)ccc2-c2[nH]c(=O)c(C(=O)O)cc21` (stereo not drawn) [Cpd 74, 5-methyl-2-oxo-8-(pyrrolidin-1-yl)-2,5-dihydro-1H-chromeno[4,3-b]pyridine-3-carboxylic acid] are 12.5 to 150 mg/L (≈ 38.3 to 460 µM), 12.5 to 150 mg/L (≈ 38.3 to 460 µM) and 1 to 3.5 mg/L (≈ 3.06 to 10.7 µM).
Consider `Cl.Cn1c(CN2CC[C@@H](F)C2)cc2cc3c(cc21)CCCc1c-3[nH]c(=O)c(C(=O)O)c1O` [Cpd 46, (R)-10-((3-fluoropyrrolidin-1-yl)methyl)-4-hydroxy-9-methyl-2-oxo-1,2,5,6,7,9-hexahydropyrido[3′,2′:6,7]cyclohepta[1,2-f]indole-3-carboxylic acid hydrochloride], for which the results for the MIC in assay [1], in assay [2] and in assay [3] (setting [4]) were 1 to 3.5 mg/L, 3.5 to 12.5 mg/L and below 1 mg/L, respectively.
As for `Cl.Cn1c(CNCC2CCC2)cc2cc3c(cc21)CCCc1c-3[nH]c(=O)c(C(=O)O)c1O` [Cpd 37, 10-(((cyclobutylmethyl)amino)methyl)-4-hydroxy-9-methyl-2-oxo-1,2,5,6,7,9-hexahydropyrido[3′,2′:6,7]cyclohepta[1,2-f]indole-3-carboxylic acid hydrochloride], the minimum inhibitory concentration (MIC) is 1 to 3.5 mg/L in assay [1], 3.5 to 12.5 mg/L in assay [2] and below 1 mg/L in assay [3] (setting [4]).
The like results for `Cl.Cn1c(CNC2CCC2)cc2cc3c(cc21)OCCc1c-3[nH]c(=O)c(C(=O)O)c1O` [Cpd 172, 10-((cyclobutylamino)methyl)-4-hydroxy-9-methyl-2-oxo-2,5,6,9-tetrahydro-1H-pyrido[2′,3′:4,5]oxepino[3,2-f]indole-3-carboxylic acid hydrochloride] were, in that order, below 1 mg/L, 3.5 to 12.5 mg/L and below 1 mg/L.
The corresponding values for `CN(C)C1CCN(c2ccc3c(c2)C(O)CCc2c-3[nH]c(=O)c(C(=O)O)c2O)C1.Cl` (stereo not drawn) [Cpd 15, 9-(3-(dimethylamino)pyrrolidin-1-yl)-4,7-dihydroxy-2-oxo-2,5,6,7-tetrahydro-1H-benzo[6,7]cyclohepta[1,2-b]pyridine-3-carboxylic acid hydrochloride] are 12.5 to 150 mg/L, 12.5 to 150 mg/L and 12.5 to 150 mg/L.
The like results for `CNCc1cc2cc3c(cc2n1C)NCCc1c-3[nH]c(=O)c(C(=O)O)c1O.Cl` [Cpd 99, 4-hydroxy-9-methyl-10-((methylamino)methyl)-2-oxo-1,2,5,6,7,9-hexahydropyrido[2′,3′:4,5]azepino[3,2-f]indole-3-carboxylic acid hydrochloride] were, in that order, 12.5 to 150 mg/L, 12.5 to 150 mg/L and 1 to 3.5 mg/L.
Take `O=C(O)c1c(O)c2c([nH]c1=O)-c1ccc(N3C[C@@H]4[C@H](C3)[C@H]4N(Cc3ccccc3)Cc3ccccc3)cc1OCC2` [Cpd 79, 9-((cis,cis)-6-(dibenzylamino)-3-azabicyclo[3.1.0]hexan-3-yl)-4-hydroxy-2-oxo-1,2,5,6-tetrahydrobenzo[2,3]oxepino[4,5-b]pyridine-3-carboxylic acid trifluoroacetate]: the minimum inhibitory concentration (MIC) in assay [1], in assay [2] and in assay [3] was 12.5 to 150 mg/L in each case.
